Columns and labels:
[1] = system: brain; test: Matured TTM-001 and TTM-002 variants, NGS enrichment in mouse brain; assay type: in vivo, mice; settings: relative to AAV9 control
[2] = system: brains, heart, liver, muscle, and DRG of the NHPs; test: Maturation of TTM-001 and TTM-002 capsids, NGS enrichment in NHP tissues; assay type: in vivo; settings: relative to AAV9 control
Outline: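 Variants carry mutations within and flanking the loop IV peptide insert: positions 450–466 were triplet-randomized, while positions 449–466 received low-frequency point mutations. The combined pool went into two NHPs, and each peptide was scored by NGS enrichment ratio against AAV9.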

[3] = NGS fold-enrichment, brain of mice
[4] = NGS fold-enrichment, mouse brain
[5] = NGS fold-enrichment of RNA, NHP brain
[6] = NGS fold-enrichment, DRG of NHPs
[7] = NGS fold-enrichment, NHP liver DNA
[8] = NGS fold-enrichment, NHP liver RNA
[9] = NGS fold-enrichment, NHP muscle
[10] = NGS fold-enrichment, RNA, brain of NHPs
[11] = NGS fold-enrichment, heart of NHPs
[12] = NGS fold-enrichment, liver DNA of NHPs
[13] = NGS fold-enrichment, liver RNA of NHPs
[14] = NGS fold-enrichment, muscle of NHPs

Sequence | Fold Enrichment relative to AAV9, Brain (Mouse) [1, 3] | Fold Enrichment relative to AAV9, Brain (Mouse) [1, 4] | Fold Enrichment relative to AAV9, Brain (NHP) [2, 5] | Fold Enrichment relative to AAV9, DRG (NHP) [2, 6] | Fold Enrichment relative to AAV9, DRG (NHP) ([2]; NGS fold-enrichment, NHP DRG) | Fold Enrichment relative to AAV9, Heart (NHP) ([2]; NGS fold-enrichment, NHP heart) | Fold Enrichment relative to AAV9, Liver DNA (NHP) [2, 7] | Fold Enrichment relative to AAV9, Liver RNA (NHP) [2, 8] | Fold Enrichment relative to AAV9, Muscle (NHP) [2, 9] | Fold Enrichment relative to AAV9, Brain (NHP) [2, 10] | Fold Enrichment relative to AAV9, Heart (NHP) [2, 11] | Fold Enrichment relative to AAV9, Liver DNA (NHP) [2, 12] | Fold Enrichment relative to AAV9, Liver RNA (NHP) [2, 13] | Fold Enrichment relative to AAV9, Muscle (NHP) [2, 14] | further results
KTEKTSGSPHSKAQNQQT | 101.467 fold | 101.467 fold | 120.337 fold | 0.000 fold | 0.000 fold | 0.355 fold | 0.119 fold | 0.000 fold | 0.000 fold | 120.337 fold | 0.355 fold | 0.119 fold | 0.000 fold | 0.000 fold | –
KTFNRSGSPHSKAQNQQI | – | 25.568 fold | 86.359 fold | – | 0.000 fold | 113.67 fold | 0.092 fold | 0.000 fold | 0.000 fold | – | – | – | – | – | –
KTERVSGSPHSKAQNQQT | 135.438 fold | 135.438 fold | 96.943 fold | 0.000 fold | 0.000 fold | 0.000 fold | 0.144 fold | 0.000 fold | 0.000 fold | 96.943 fold | 0.000 fold | 0.144 fold | 0.000 fold | 0.000 fold | Fold Enrichment relative to AAV9, Brain (Mouse) ([1]; mouse brain): 135.438 fold; Fold Enrichment relative to AAV9, Brain (NHP) ([2]; NGS fold-enrichment of matured AAV capsid variants, NHP brain, RNA): 96.943 fold; Fold Enrichment relative to AAV9, DRG (NHP) ([2]; NHP DRG): 0.000 fold; Fold Enrichment relative to AAV9, Heart (NHP) ([2]; NHP heart): 0.000 fold; Fold Enrichment relative to AAV9, Liver DNA (NHP) ([2]; NHP liver, DNA): 0.144 fold; Fold Enrichment relative to AAV9, Liver RNA (NHP) ([2]; NHP liver, RNA): 0.000 fold; Fold Enrichment relative to AAV9, Muscle (NHP) ([2]; NHP muscle): 0.000 fold
KTEKVSGSPHSKAQNQQT | 112.185 fold | 112.185 fold | 84.558 fold | 0.000 fold | 0.000 fold | 0.022 fold | 0.424 fold | 0.873 fold | 0.000 fold | 84.558 fold | 0.022 fold | 0.424 fold | 0.873 fold | 0.000 fold | –
KTINGSGSPHTKAQNPQS | 62.508 fold | – | – | 0.000 fold | – | – | – | – | – | 72.594 fold | 0.000 fold | 0.130 fold | 0.000 fold | 0.000 fold | –
KTVNGSGSPHSKAPNQHT | 51.008 fold | 51.008 fold | 117.207 fold | 0.000 fold | 0.000 fold | 0.109 fold | 0.074 fold | 0.000 fold | 0.000 fold | 117.207 fold | 0.109 fold | 0.074 fold | 0.000 fold | 0.000 fold | –
KTINGQDSPHKSGQNQDT | – | 9.626 fold | 82.075 fold | – | 0.000 fold | 0.067 fold | 0.144 fold | 0.225 fold | 0.000 fold | – | – | – | – | – | –
KIINGRDSPHKSGQDQQT | – | 16.132 fold | 78.773 fold | – | 0.000 fold | 0.254 fold | 0.156 fold | 0.000 fold | 0.000 fold | – | – | – | – | – | –
KTINGSGSPHSKSQSQQI | 64.027 fold | – | – | 0.000 fold | – | – | – | – | – | 61.870 fold | 0.000 fold | 0.175 fold | 0.200 fold | 0.000 fold | –
KTINGSGSPHTKAQNPPT | – | 34.425 fold | 147.061 fold | – | 0.000 fold | 0.727 fold | 0.000 fold | 0.000 fold | 0.000 fold | – | – | – | – | – | –
KTCNGHDSPHKSGRNQQT | – | 12.496 fold | 94.616 fold | – | 0.000 fold | 0.025 fold | 0.128 fold | 0.000 fold | 0.000 fold | – | – | – | – | – | –
NTINGSGSPHSKAQNQQT (peptide inserted in AAV capsid) | 55.179 fold | 55.179 fold | 90.017 fold | 1.712 fold | 1.712 fold | 1.261 fold | 0.540 fold | 0.923 fold | 1.171 fold | 90.017 fold | 1.261 fold | 0.540 fold | 0.923 fold | 1.171 fold | –
KTTNGHDSPHKSGQNLLT | – | 15.192 fold | 77.738 fold | – | 0.130 fold | 0.064 fold | 0.326 fold | 0.424 fold | 0.185 fold | – | – | – | – | – | –

Source: US20260250318A1, “COMPOSITIONS AND METHODS FOR CROSSING THE BLOOD BRAIN BARRIER” (VOYAGER THERAPEUTICS, INC., priority 2022, published 2026)
